For one experiment, the target named is PARP1 (Homo sapiens, UniProt P09874). Kind of experiment: PARP1-DNA enzymatic trapping assay. In kind it is biochemical. As to conditions: 10 nM PARP1, 5 nM DNA probe, 2 mM NAD+, fluorescence polarization read at 30 minutes. How it is done:
Enzymatic trapping assay is to measure the dissociation process of PARP1 from fluorescein-labeled DNA during the enzymatic activity. Assay was conducted at a total 10 μL of reaction volume, including 10 nM PARP1 and 5 nM DNA probe in the binding buffer (50 mM Tris-HCl pH 8.0, 50 mM NaCl, 1 mM MgCl2, 0.1 mM EDTA, and 0.01% IGEPAL), and was commenced by adding a final concentration of 2 mM NAD+ substrate.
PARP1 Poly-ADP ribosylation (PARylation) inhibitory assay was conducted with compounds dissolved in DMSO at a starting concentration of 5 μM. Dissolved compounds were added to 384-well microplate and premixed with PARPI enzyme and DNA probe for 20 minutes incubation. Enzymatic reactions were started by adding NAD+ to mixture, and each well was read at 30 minutes by microplate reader (VICTOR Nivo®, PerkinElmer) to detect the fluorescence polarization signal at 480 nm excitation/530 nm dual emission.
All measured IC50 values were calculated using four parameters dose-response inhibition model in GraphPad Prism 8.0.2 (La Jolla, California, USA, www.graphpad.com).

For a further experiment, the target named is PARP2 (Homo sapiens, UniProt Q9UGN5). Kind of experiment: PARP2-FL displacement assay. Conditions: 20 nM PARP2, 3 nM PARPi-FL, 4 hours incubation, fluorescence polarization. In kind it is binding. Here is the method: A potent PARP inhibitor (PARPi-FL, Cat No. 6461, Tocris Bioscience) conjugated to BDY FL fluorophore was adopted to characterize the activity of PARP2 by measuring the displacement of binding of PARPi-FL to PARP2. Compounds to be tested were prepared at a concentration of 1-10 mM, and made a 3-fold serial dilution by 100% DMSO in a polypropylene plate (Bio-One small volume microplate, black, Cat No. 784076, Greiner). 100 nL of test compounds were dispensed into a 384-well polypropylene microplate and added 10 μL of reaction solution including premixed 20 nM PARP2 and 3 nM PARPi-FL. After 4 hours of incubation at room temperature, the fluorescence polarization signal at 480/30 nm excitation and 530/30 nm dual emission was measured by VICTOR Nivo® multimode plate reader (PerkinElmer). All of the measured IC50 values were calculated using four parameters dose-response inhibition model in GraphPad Prism 8.0.2 (La Jolla, California, USA, www.graphpad.com).

Another experiment relates to MDA-MB-436 cells. The experiment is described as follows: Cell proliferation assay (MDA-MB-436). In kind it is cell-based. Conditions: at least 7 days, Cell-Titer Glo, read-out: MDA-MB-436 anti-proliferation assay. How it is done: (§1) For PARPi sensitivity, exponentially growing MDA-MB-436 and DLD1 BRCA2^−/− cells were seed in 96 or 384-well plates at very low density with the goal of not splitting for at least 7 days (typically 0.3k-1.2k cells/well). Cells were plated on […] and treated with DMSO or increasing concentrations of PARP1 inhibitors on Day 0. At the end of the experiment, cell viability was estimated using Cell-Titer Glo (Promega).

The next experiment relates to DLD1 BRCA2−/− cells. The experiment is described as follows: Cell proliferation assay (DLD1 BRCA2−/−). In kind it is cell-based. As to conditions: at least 7 days, Cell-Titer Glo, read-out: DLD1 BRCA2−/− anti-proliferation assay. How it is done: as §1
[1] abbreviates: Homo sapiens, MDA-MB-436, 168 h.

From patent publication US20260226076A1, “FUSED MULTICYCLIC COMPOUNDS AND THEIR USE AS PARP1 INHIBITORS” (LAEKNA THERAPEUTICS SHANGHAI CO., LTD., priority 2022, published 2026) come the findings set out here.

Where two headings read alike, the source gives them in different places.

PARP2, sequence (Q9UGN5 whole entry): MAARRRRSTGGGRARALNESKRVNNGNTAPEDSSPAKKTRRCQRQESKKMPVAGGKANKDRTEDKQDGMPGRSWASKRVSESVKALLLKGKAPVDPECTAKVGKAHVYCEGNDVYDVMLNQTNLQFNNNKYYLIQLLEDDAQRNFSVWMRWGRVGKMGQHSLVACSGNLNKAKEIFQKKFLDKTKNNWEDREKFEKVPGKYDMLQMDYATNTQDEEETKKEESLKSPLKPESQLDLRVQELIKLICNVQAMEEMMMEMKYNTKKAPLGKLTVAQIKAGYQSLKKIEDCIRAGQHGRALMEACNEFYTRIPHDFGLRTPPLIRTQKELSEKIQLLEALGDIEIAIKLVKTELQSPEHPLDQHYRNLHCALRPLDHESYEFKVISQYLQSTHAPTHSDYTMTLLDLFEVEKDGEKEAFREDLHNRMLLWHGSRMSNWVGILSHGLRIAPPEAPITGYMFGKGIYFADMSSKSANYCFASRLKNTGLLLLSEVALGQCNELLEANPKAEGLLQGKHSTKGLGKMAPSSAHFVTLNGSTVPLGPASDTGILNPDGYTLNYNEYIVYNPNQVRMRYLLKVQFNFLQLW
PARP1, sequence (P09874 whole entry): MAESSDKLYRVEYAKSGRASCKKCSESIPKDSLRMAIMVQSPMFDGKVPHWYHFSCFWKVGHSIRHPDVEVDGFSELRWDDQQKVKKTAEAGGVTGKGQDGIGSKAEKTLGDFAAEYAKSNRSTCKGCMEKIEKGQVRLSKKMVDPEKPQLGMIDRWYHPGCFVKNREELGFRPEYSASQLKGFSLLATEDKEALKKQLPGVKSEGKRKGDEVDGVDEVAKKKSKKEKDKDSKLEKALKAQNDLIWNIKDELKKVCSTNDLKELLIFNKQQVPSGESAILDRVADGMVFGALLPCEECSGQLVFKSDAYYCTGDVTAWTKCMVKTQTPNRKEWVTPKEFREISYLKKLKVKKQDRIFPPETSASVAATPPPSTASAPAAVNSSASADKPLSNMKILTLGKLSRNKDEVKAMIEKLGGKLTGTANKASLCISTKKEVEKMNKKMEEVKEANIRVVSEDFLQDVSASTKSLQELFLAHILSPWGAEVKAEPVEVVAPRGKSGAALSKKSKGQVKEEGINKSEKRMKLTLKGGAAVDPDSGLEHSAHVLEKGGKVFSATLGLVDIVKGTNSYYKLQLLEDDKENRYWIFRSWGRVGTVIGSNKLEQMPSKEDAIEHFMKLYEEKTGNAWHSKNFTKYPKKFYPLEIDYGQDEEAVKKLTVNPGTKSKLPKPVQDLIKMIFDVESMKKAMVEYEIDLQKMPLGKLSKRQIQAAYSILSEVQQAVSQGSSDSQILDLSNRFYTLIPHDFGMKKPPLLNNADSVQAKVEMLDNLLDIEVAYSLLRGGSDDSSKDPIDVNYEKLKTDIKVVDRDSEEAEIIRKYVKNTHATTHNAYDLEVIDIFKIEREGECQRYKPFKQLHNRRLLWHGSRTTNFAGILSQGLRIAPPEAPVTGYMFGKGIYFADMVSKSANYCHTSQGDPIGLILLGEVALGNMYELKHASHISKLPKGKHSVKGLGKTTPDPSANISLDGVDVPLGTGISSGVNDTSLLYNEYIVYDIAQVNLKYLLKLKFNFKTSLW

Regarding `O=C(N[C@@H]1CCOC1)c1ccc(N2C[C@H]3CN(Cc4ccc5c6c(c(=O)[nH]c5c4)COCC6)C[C@@H]3C2)c(F)n1` [Compound 86], the IC50 is 11.7 nM on PARP1; 2370 nM at PARP2; 2.25 nM in the experiment with MDA-MB-436 cells (setting [1]); 1.37 nM in the experiment with DLD1 BRCA2−/− cells (Homo sapiens, DLD-1, 168 h).
The like results for `CNC(=O)c1ccc(N2C[C@H]3CN(Cc4cnc5c6c(c(=O)[nH]c5c4)CCC6)C[C@@H]3C2)c(F)n1` [Compound 48] were, in that order, 12 nM, 2050 nM, 0.74 nM and 1.02 nM.
The corresponding values for `CCc1cc2cnc(CN3C[C@@H]4CN(c5ccc(C(=O)NC)nc5F)C[C@H]4C3)cc2[nH]c1=O` [Compound 40] are 9.28 nM, 4050 nM, 0.62 nM and 0.77 nM.
The corresponding values for `COCCNC(=O)c1ccc(N2C[C@H]3CN(Cc4cnc5c(c4)[nH]c(=O)c4cccn45)C[C@@H]3C2)cn1` [Compound 46] are 8.21 nM, 2440 nM, 1.66 nM and 3.01 nM.
Turning to `CNC(=O)c1ccc(N2C[C@H]3CN(Cc4ccc5c6c(c(=O)[nH]c5c4)COC6)C[C@@H]3C2)c(F)n1` [Compound 60], the IC50 stood at 8.17 nM against PARP1; 2470 nM on PARP2; 1.04 nM with MDA-MB-436 cells (setting [1]); 1.6 nM with DLD1 BRCA2−/− cells (Homo sapiens, DLD-1, 168 h).
With `COCCNC(=O)c1ccc(N2C[C@H]3CN(Cc4cnc5c6c(c(=O)[nH]c5c4)CCC6)C[C@@H]3C2)c(F)n1` [Compound 49], the IC50 is 9.61 nM against PARP1; 2110 nM on PARP2; 1.03 nM with MDA-MB-436 cells (setting [1]); 2.16 nM in the experiment on DLD1 BRCA2−/− cells (Homo sapiens, DLD-1, 168 h).
The like results for `CNC(=O)c1ccc(N2C[C@H]3CN(Cc4cnc5c6c(c(=O)[nH]c5c4)COCC6)C[C@@H]3C2)c(F)n1` [Compound 71] were, in that order, 5.05 nM, 500 nM, 0.18 nM and 0.44 nM.
Take `CCC1Oc2ncc(CN3C[C@H]4CN(c5ccc(C(=O)NC)nc5)C[C@@H]4C3)cc2NC1=O` (mixture of isomers) [Compound 14]: the IC50 is 33.1 nM at PARP1, 9.85 nM with MDA-MB-436 cells and 5.59 nM with DLD1 BRCA2−/− cells.
Take `CNC(=O)c1ccc(N2C[C@@H]3CN(Cc4ccc5nc(C)c(=O)[nH]c5c4F)C[C@H]3C2)c(F)n1` (racemic) [Compound 3]: the IC50 at PARP1 worked out at 41.1 nM; in the experiment on MDA-MB-436 cells (setting [1]), 15.7 nM; with DLD1 BRCA2−/− cells (Homo sapiens, DLD-1, 168 h), 45.3 nM.
The corresponding values for `CNC(=O)c1ccc(N2C[C@@H]3CN(Cc4ccc5c(c4)[nH]c(=O)n4ccnc54)C[C@H]3C2)cn1` (racemic) [Compound 13] are 46.3 nM, 31.6 nM and 10.6 nM.
The like results for `Cc1cc2ncc(CN3C[C@@H]4CN(c5ccc(C(=O)NC6CC6)nc5F)C[C@H]4C3)cc2[nH]c1=O` [Compound 30] were, in that order, 8.09 nM, 0.37 nM and 0.45 nM.
The corresponding values for `CNC(=O)c1ccc(N2C[C@H]3CN(Cc4cnc5c6c(c(=O)[nH]c5c4)COC6)C[C@@H]3C2)c(F)n1` [Compound 62] are 7.82 nM, 1.53 nM and 5.86 nM.
In the case of `CNC(=O)c1ccc(N2C[C@@H]3CN(Cc4ccc5nc(C)c(=O)[nH]c5c4F)C[C@H]3C2)cn1` (racemic) [Compound 6], the IC50 at PARP1 came to 262 nM; with MDA-MB-436 cells (setting [1]), 76.1 nM; in the experiment with DLD1 BRCA2−/− cells (Homo sapiens, DLD-1, 168 h), 49.3 nM.
The corresponding values for `CNC(=O)c1ccc(N2C[C@H]3CN(Cc4cnc5cc(C)c(=O)[nH]c5c4)C[C@@H]3C2)c(F)n1` [Compound 29] are 10.9 nM, 0.59 nM and 0.87 nM.
For `CCC1Oc2ncc(CN3C[C@H]4CN(c5ccc(C(=O)NC)nc5)C[C@@H]4C3)cc2NC1=O` (mixture of isomers) [Compound 5], the IC50 was determined as 111 nM against PARP1, 39.9 nM with MDA-MB-436 cells and 18.6 nM in the experiment on DLD1 BRCA2−/− cells.
As for `CCc1cc2ncc(CN3C[C@H]4CN(c5ccc(C(=O)NC)nc5F)C[C@@H]4C3)cc2[nH]c1=O` [Compound 28], the IC50 was 9.73 nM against PARP1, 3.93 nM in the experiment with MDA-MB-436 cells and 5.02 nM in the experiment with DLD1 BRCA2−/− cells.
Consider `CNC(=O)c1ccc(N2C[C@H]3CN(Cc4ccc5c6c(c(=O)[nH]c5c4)OCCC6)C[C@@H]3C2)c(F)n1` [Compound 88], for which the IC50 against PARP1 worked out at 7.9 nM; in the experiment on MDA-MB-436 cells (setting [1]) it was 1.42 nM; in the experiment with DLD1 BRCA2−/− cells (Homo sapiens, DLD-1, 168 h) it was 4.56 nM.
The like results for `O=C(NC1COC1)c1ccc(N2C[C@H]3CN(Cc4ccc5c6c(c(=O)[nH]c5c4)OCCC6)C[C@@H]3C2)c(F)n1` [Compound 89] were, in that order, 4.32 nM, 1.08 nM and 8.28 nM.
On to `CNC(=O)c1ccc(N2C[C@@H]3CN(Cc4ccc5nc(C)c(=O)[nH]c5c4F)C[C@H]3C2)c(F)n1` [Compound 11], for which the IC50 at PARP1 is 323 nM; with MDA-MB-436 cells (setting [1]), over 500 nM; in the experiment with DLD1 BRCA2−/− cells (Homo sapiens, DLD-1, 168 h), over 500 nM.
For `CNC(=O)c1ccc(N2C[C@H]3CN(Cc4ccc5nc(C)c(=O)[nH]c5c4)C[C@@H]3C2)c(F)n1` [Compound 31], the IC50 against PARP1 stood at 8.35 nM; with MDA-MB-436 cells (setting [1]), 0.98 nM; in the experiment with DLD1 BRCA2−/− cells (Homo sapiens, DLD-1, 168 h), 1.49 nM.
For the compound `Cc1cc2ncc(CN3C[C@H]4CN(c5ccc(C(=O)NC6CC6)nc5)C[C@@H]4C3)cc2[nH]c1=O` (racemic) [Compound 20], the IC50 was 16.6 nM at PARP1; 3.47 nM with MDA-MB-436 cells (setting [1]); 4.12 nM in the experiment with DLD1 BRCA2−/− cells (Homo sapiens, DLD-1, 168 h).
The corresponding values for `CCc1cc2cnc(CN3C[C@@H]4CN(c5ccc(C(=O)NC)nc5)C[C@@H]4C3)cc2[nH]c1=O` [Compound 39] are 9.74 nM, 1.39 nM and 1.22 nM.
For `CCc1cc2ncc(CN3C[C@H]4CN(c5ccc(C(=O)NC)nc5)C[C@@H]4C3)cc2[nH]c1=O` (racemic) [Compound 2], the results for the IC50 at PARP1, in the experiment with MDA-MB-436 cells and in the experiment with DLD1 BRCA2−/− cells were 10.7 nM, 0.4 nM and 1.98 nM, respectively.
On to `CNC(=O)c1ccc(N2C[C@H]3CN(Cc4cnc5cc(OC)c(=O)[nH]c5c4)C[C@@H]3C2)c(F)n1` [Compound 33], for which the IC50 against PARP1 was 7.81 nM; in the experiment with MDA-MB-436 cells (setting [1]), 2.48 nM; with DLD1 BRCA2−/− cells (Homo sapiens, DLD-1, 168 h), 4.13 nM.
In the case of `CNC(=O)c1ccc(N2C[C@H]3CN(Cc4cc5[nH]c(=O)c(C)cc5cn4)C[C@@H]3C2)c(F)n1` [Compound 36], the IC50 on PARP1 came to 8.44 nM; in the experiment on MDA-MB-436 cells (setting [1]), 2.08 nM; with DLD1 BRCA2−/− cells (Homo sapiens, DLD-1, 168 h), 1.51 nM.
As to `O=C(NC1CCOCC1)c1ccc(N2C[C@H]3CN(Cc4cc5[nH]c(=O)c6c(c5cn4)CCC6)C[C@@H]3C2)c(F)n1` [Compound 58], the IC50 turned out to be 7.68 nM against PARP1; 2.51 nM in the experiment with MDA-MB-436 cells (setting [1]); 12.9 nM with DLD1 BRCA2−/− cells (Homo sapiens, DLD-1, 168 h).
The like results for `CNC(=O)c1ccc(N2C[C@H]3CN(Cc4cnc5cc(C)c(=O)[nH]c5c4)C[C@@H]3C2)c(C)n1` [Compound 25] were, in that order, 20.5 nM, 5.06 nM and 7.49 nM.
The corresponding values for `CCC1Oc2ncc(CN3C[C@H]4CN(c5ccc(C(=O)NC)nc5F)C[C@@H]4C3)cc2NC1=O` (mixture of isomers) [Compound 8] are 47.3 nM, 5.13 nM and 13.9 nM.
The like results for `COCCNC(=O)c1ccc(N2C[C@H]3CN(Cc4cnc5cc(C)c(=O)[nH]c5c4)C[C@@H]3C2)c(F)n1` [Compound 35] were, in that order, 23.7 nM, 3 nM and 4.14 nM.
